Earlier results in paper PMC9516332 (Frontiers in Oncology, 2022).
Where two headings read alike, the source gives them in different places.

Columns and labels:
Details in all cases: cited from earlier work
[1] = target: panel of 255 wild-type kinases (Homo sapiens, UniProt Q9HC98)
[2] = target: panel of 255 wild-type kinases (Homo sapiens, UniProt O75582)
[3] = target: T1, panel of 255 wild-type kinases (Homo sapiens, UniProt P54753)
T1 sequence (P54753 34-998): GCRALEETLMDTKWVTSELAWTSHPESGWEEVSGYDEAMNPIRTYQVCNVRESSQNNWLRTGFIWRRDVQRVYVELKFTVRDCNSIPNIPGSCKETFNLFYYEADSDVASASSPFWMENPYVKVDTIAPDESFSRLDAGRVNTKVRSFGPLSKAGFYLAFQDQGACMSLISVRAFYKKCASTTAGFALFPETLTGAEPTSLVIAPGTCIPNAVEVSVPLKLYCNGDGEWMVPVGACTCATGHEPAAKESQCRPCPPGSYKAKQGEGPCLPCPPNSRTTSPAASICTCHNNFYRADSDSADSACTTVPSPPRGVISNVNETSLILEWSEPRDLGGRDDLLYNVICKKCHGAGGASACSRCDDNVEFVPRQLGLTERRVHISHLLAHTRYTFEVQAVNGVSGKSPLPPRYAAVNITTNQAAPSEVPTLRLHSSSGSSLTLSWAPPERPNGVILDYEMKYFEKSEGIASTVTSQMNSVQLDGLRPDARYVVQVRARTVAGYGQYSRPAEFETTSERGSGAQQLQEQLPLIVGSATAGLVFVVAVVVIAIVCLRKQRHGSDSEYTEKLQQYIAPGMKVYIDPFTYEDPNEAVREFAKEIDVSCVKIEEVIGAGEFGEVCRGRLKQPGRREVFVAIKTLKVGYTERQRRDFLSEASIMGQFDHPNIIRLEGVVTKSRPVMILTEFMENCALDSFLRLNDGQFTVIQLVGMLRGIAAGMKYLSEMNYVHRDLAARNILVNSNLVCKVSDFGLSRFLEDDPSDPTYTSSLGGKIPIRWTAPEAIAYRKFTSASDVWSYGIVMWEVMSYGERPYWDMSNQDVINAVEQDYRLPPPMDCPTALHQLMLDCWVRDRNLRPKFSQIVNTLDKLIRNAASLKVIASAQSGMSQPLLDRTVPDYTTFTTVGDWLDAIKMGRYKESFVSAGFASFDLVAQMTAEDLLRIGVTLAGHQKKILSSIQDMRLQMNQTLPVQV

[4] = target: panel of 255 wild-type kinases (Homo sapiens, UniProt O96017)
[5] = target: panel of 255 wild-type kinases (Homo sapiens, UniProt P05129)
[6] = target: T2, panel of 255 wild-type kinases (Homo sapiens, UniProt Q9H093)
T2 sequence (Q9H093 1-628): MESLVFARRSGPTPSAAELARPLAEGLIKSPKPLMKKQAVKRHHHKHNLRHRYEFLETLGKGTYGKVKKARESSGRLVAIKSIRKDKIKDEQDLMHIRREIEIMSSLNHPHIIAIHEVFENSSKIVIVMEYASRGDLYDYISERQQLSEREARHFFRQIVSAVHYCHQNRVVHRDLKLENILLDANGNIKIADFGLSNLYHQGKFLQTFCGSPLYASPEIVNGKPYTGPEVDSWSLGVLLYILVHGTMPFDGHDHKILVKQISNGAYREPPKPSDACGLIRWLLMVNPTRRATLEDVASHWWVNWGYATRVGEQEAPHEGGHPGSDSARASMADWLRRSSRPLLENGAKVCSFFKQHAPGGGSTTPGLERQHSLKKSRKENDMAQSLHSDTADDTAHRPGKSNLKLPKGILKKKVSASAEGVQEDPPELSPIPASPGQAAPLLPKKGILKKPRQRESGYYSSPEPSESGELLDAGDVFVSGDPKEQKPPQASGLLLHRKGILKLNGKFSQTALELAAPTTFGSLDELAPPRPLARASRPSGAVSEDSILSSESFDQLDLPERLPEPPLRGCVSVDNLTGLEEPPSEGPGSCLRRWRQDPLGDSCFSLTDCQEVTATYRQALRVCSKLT

[7] = target: T3, panel of 255 wild-type kinases (Homo sapiens, UniProt Q05513)
T3 sequence (Q05513 1-592): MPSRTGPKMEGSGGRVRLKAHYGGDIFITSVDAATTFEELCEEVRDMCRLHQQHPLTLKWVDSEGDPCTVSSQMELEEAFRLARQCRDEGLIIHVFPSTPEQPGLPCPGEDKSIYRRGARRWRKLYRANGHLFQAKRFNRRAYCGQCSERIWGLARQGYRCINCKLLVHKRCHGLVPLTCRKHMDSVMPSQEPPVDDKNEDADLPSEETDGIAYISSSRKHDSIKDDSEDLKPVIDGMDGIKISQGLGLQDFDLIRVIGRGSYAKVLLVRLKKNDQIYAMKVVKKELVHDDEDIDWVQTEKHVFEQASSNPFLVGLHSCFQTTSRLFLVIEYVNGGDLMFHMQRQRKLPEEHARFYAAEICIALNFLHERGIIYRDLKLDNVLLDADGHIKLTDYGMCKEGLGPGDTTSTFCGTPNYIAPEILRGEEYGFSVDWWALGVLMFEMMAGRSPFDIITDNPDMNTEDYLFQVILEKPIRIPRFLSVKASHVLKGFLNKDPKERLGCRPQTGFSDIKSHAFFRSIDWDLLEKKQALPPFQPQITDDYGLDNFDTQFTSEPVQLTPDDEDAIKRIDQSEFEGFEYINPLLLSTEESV

[8] = target: panel of 255 wild-type kinases (Homo sapiens, UniProt Q9H4A3)
[9] = NEK6, 1 µmol/L single concentration, ref DOI: 10.1158/1535-7163.MCT-18-0877
[10] = MSK1, 1 µmol/L single concentration, ref DOI: 10.1158/1535-7163.MCT-18-0877
[11] = kinase EPHB3, 1 µmol/L single concentration, ref DOI: 10.1158/1535-7163.MCT-18-0877
[12] = CHK2 kinase assay, 1 µmol/L single concentration, ref DOI: 10.1158/1535-7163.MCT-18-0877
[13] = kinase PKCγ, 1 µmol/L single concentration, ref DOI: 10.1158/1535-7163.MCT-18-0877
[14] = NuaK2, 1 µmol/L single concentration, ref DOI: 10.1158/1535-7163.MCT-18-0877
[15] = kinase PKCζ, 1 µmol/L single concentration, ref DOI: 10.1158/1535-7163.MCT-18-0877
[16] = kinase WNK1, 1 µmol/L single concentration, ref DOI: 10.1158/1535-7163.MCT-18-0877
[17] = NEK6, 1 µmol/L single concentration, ref DOI: 10.1371/journal.pone.0092146
[18] = kinase EPHB3, 1 µmol/L single concentration, ref DOI: 10.1371/journal.pone.0092146
[19] = CHK2 kinase assay, 1 µmol/L single concentration, ref DOI: 10.1371/journal.pone.0092146
[20] = kinase PKCγ, 1 µmol/L single concentration, ref DOI: 10.1371/journal.pone.0092146
[21] = NuaK2, 1 µmol/L single concentration, ref DOI: 10.1371/journal.pone.0092146
[22] = kinase PKCζ, 1 µmol/L single concentration, ref DOI: 10.1371/journal.pone.0092146
[23] = kinase WNK1, 1 µmol/L single concentration, ref DOI: 10.1371/journal.pone.0092146
[24] = MSK1, 1 µmol/L single concentration, ref DOI: 10.1371/journal.pone.0092146

Row | Compound | %-inhibition, NEK6 [1, 9] [%] | %-inhibition, MSK1 [2, 10] [%] | %-inhibition at 1 µmol/L, EPHB3 [3, 11] [%] | %-inhibition CHK2 [4, 12] [%] | %-inhibition at 1 µmol/L, PKCγ [5, 13] [%] | %-inhibition, NuaK2 [6, 14] [%] | %-inhibition at 1 µmol/L, PKCζ [7, 15] [%] | %-inhibition at 1 µmol/L, WNK1 [8, 16] [%] | also measured
1 | O=C(c1ccc(F)c(F)c1Nc1ccc(I)cc1F)N1CC(O)([C@@H]2CCCCN2)C1 [cobimetinib] | 1.81 | -3 | 0.898 | -0.103 | -1.52 | -10 | 9 | -0.124 | –
2 | CO[C@@H]1[C@H](N(C)C(=O)c2ccccc2)C[C@H]2O[C@]1(C)n1c3ccccc3c3c4c(c5c6ccccc6n2c5c31)C(=O)NC4 [midostaurin] | -8 | 88 | 1.53 | 36 | 91 | 99 | -3.41 | 5.36 | –
3 | C=CC(=O)N1CCC[C@@H](n2nc(-c3ccc(Oc4ccccc4)cc3)c3c(N)ncnc32)C1 [ibrutinib] | 0.77 | -1.18 | 3 | 14 | 0.797 | 6.37 | 10 | 2.3 | –
4 | C[C@@H](Oc1cc(-c2cnn(C3CCNCC3)c2)cnc1N)c1c(Cl)ccc(F)c1Cl [crizotinib] | – | – | – | – | – | – | – | – | %-inhibition, NEK6 [1, 17]: -2.72%; %-inhibition, MSK1 [2]: -0.641%; %-inhibition at 1 µmol/L, EPHB3 [3, 18]: 5%; %-inhibition CHK2 [4, 19]: 9%; %-inhibition at 1 µmol/L, PKCγ [5, 20]: -0.662%; %-inhibition, NuaK2 [6, 21]: 87%; %-inhibition at 1 µmol/L, PKCζ [7, 22]: 9%; %-inhibition at 1 µmol/L, WNK1 [8, 23]: -3%
5 | Cc1cc(Nc2ncc(Cl)c(Nc3ccccc3S(=O)(=O)C(C)C)n2)c(OC(C)C)cc1C1CCNCC1 [ceritinib] | 0.593 | -1.09 | -1 | 88 | -1.46 | 43 | 14 | 4.45 | –
6 | CC(C)(C)c1nc(-c2cccc(NS(=O)(=O)c3c(F)cccc3F)c2F)c(-c2ccnc(N)n2)s1 [dabrafenib] | – | – | – | – | – | – | – | – | %-inhibition, NEK6 [1, 17]: -3%; %-inhibition, MSK1 [2, 24]: 0.0759%; %-inhibition at 1 µmol/L, EPHB3 [3, 18]: 3%; %-inhibition CHK2 [4, 19]: 7%; %-inhibition at 1 µmol/L, PKCγ [5, 20]: -0.381%; %-inhibition, NuaK2 [6, 21]: 4.53%; %-inhibition at 1 µmol/L, PKCζ [7, 22]: 5%; %-inhibition at 1 µmol/L, WNK1 [8, 23]: 1.14%
7 | C=CC(=O)Nc1cc(Nc2nccc(-c3cn(C)c4ccccc34)n2)c(OC)cc1N(C)CCN(C)C [osimertinib] | 0.319 | -0.561 | -0.0464 | 6 | 14 | 4 | 9.52 | -1.88 | –
8 | CC#CC(=O)N1CCC[C@H]1c1nc(-c2ccc(C(=O)Nc3ccccn3)cc2)c2c(N)nccn12 [acalabrutinib] | -5.54 | -8 | 1.64 | -6 | -7.43 | 3 | -5.44 | 5.36 | –
9 | COc1cc(N2CCC(N3CCN(C)CC3)CC2)ccc1Nc1ncc(Cl)c(Nc2ccccc2P(C)(C)=O)n1 [brigatinib] | – | – | – | – | – | – | – | – | %-inhibition, NEK6 [1]: 0.534%; %-inhibition, MSK1 [2]: 23%; %-inhibition at 1 µmol/L, EPHB3 [3]: 0.727%; %-inhibition CHK2 [4]: 96%; %-inhibition at 1 µmol/L, PKCγ [5]: 11%; %-inhibition, NuaK2 [6]: 98%; %-inhibition at 1 µmol/L, PKCζ [7]: 5%; %-inhibition at 1 µmol/L, WNK1 [8]: 5%
10 | CCCS(=O)(=O)Nc1ccc(F)c(C(=O)c2c[nH]c3ncc(-c4ccc(Cl)cc4)cc23)c1F [vemurafenib] | – | – | – | – | – | – | – | – | %-inhibition, NEK6 [1, 17]: -1.43%; %-inhibition, MSK1 [2, 24]: 0.256%; %-inhibition at 1 µmol/L, EPHB3 [3, 18]: 2%; %-inhibition CHK2 [4, 19]: 6.32%; %-inhibition at 1 µmol/L, PKCγ [5, 20]: -4.39%; %-inhibition, NuaK2 [6, 21]: 4.36%; %-inhibition at 1 µmol/L, PKCζ [7, 22]: 13%; %-inhibition at 1 µmol/L, WNK1 [8, 23]: 10%
11 | CCc1cc2c(cc1N1CCC(N3CCOCC3)CC1)C(C)(C)c1[nH]c3cc(C#N)ccc3c1C2=O [alectinib] | 1.43 | 0.0374 | 2 | 96 | 0.135 | -1.06 | 10 | 6 | –
